Assay [1] relates to subject carrying a polyQ tract expansion mutation in the Huntingtin gene. Nature of the assay: Carbenoxolone in pre-symptomatic HD patients. Type of assay: in vivo, human. The conditions noted are these: administered before clinical symptoms manifest, from about 150 mg/day. The protocol:
After a period of time sufficient for a change in a cortisol level to manifest, e.g. after about a week, about two weeks, about three weeks, or about a month, the cortisol level in the subject is measured. […] For example, in some embodiments, the dose may be increased from about 150 mg/day to about 300 mg/day. In some embodiments, the cortisol level in the subject is measured again after dose adjustment and, if the cortisol level remains elevated, the dose is increased further. For example, in some embodiments, the dose may be increased from about 300 mg/day to about 450 mg/day. In some embodiments, multiple cycles of dose adjustment and cortisol level measurement are performed until a desired cortisol level is observed in the subject, for example, a blood plasma cortisol level within the range of 70-700 nmol/l or 70-350 nmol/l. For example, in some embodiments, the dose may be increased from about 150 mg/day to about 300 mg/day in a first dose adjustment, then to about 450 mg/day, then to about 500 mg/day, then to about 600 mg/day. […] In some cases, the dosage may be decreased below 150 mg/day, particularly, where a desired reduction in a cortisol level is still observed with lower doses. […]

For assay [2], the system named is gap junction. The following applies: cited from earlier work.
Assay [3] relates to Drosophila HD model. Nature of the assay: Early dosing of carbenoxolone in Drosophila HD model (lifespan, motor control). Type of assay: in vivo.
Assay [4] relates to HD larvae (Elav^c155-GAL4; UAS-Htt-Q138/+). Nature of the assay: In vivo rescue: viability of HD larvae after 5-day drug dosing in liquid culture. On the set-up: species or system Drosophila. The following applies: larvae reared in liquid culture, 5-day dosing, compared to DMSO-treated controls. The protocol: In vivo Rescue studies: For small molecule in vivo rescue studies, Elav^c155; UAS-Htt-Q138-mRFP^1, UAS-mCD8-GFP/+1st instar larvae were collected en-masse and dispensed into liquid yeast media (10 larvae/well) containing therapeutic agents at three different concentrations as described in the results (n=8 replicas/concentration). Cultures were reared at 21° C. and larval viability was assessed after 5 days and the mean number of living Htt138Q larvae (i.e. GFP^+, Htt138QmRFP^+, and mobile) was tabulated, and expressed as a percentage of total larvae/well. For genetic rescue studies with lkb1, two Htt138Q strains were utilized: a strong expressing line, UAS-Htt138QmRFP^1 which is pharate lethal when crossed to Elav^c155, and a weaker expressing line, UAS-Htt138QmRFP^2 which survives to adulthood and is viable for a number of weeks. Using the strong line, pharate lethality at 25° C. was calculated after lkb1 (lkb1^4B1-11 and lkb1^4A4-2 alleles) was introduced into an Elav^c155, UAS-Htt/+background. Lkb1^4B1-11 is a premature truncation allele (Q98>Stop), and lkb1^4A4-2 is an EMS null allele (589 b.p. deletion removing 150 b.p. of the 5′ UTR, the start codon and the beginning of the open reading frame). For Top1 in vivo analysis, Elav^c155, Top^112 recombinants were generated and crossed to UAS-Htt138QmRFP^1.
To further examine the RNAi/small molecule screen hits, we assayed in vivo efficacy by testing their ability to rescue lethality in our Drosophila HD model. […] Specific inhibitors of Lkb1 were not available for in vivo testing.

The test system of assay [5] is HD model strain mice. Put plainly: Rotarod assay in HD model strain mice. Type of assay: in vivo, mouse. The following applies: treated from 4 weeks, tested at 8 weeks of age, vs untreated HD mice. The source says: Mouse strains: Mouse strain names provided herein adhere to the Guidelines for Nomenclature of Mouse and Rat Strains, Revised October 2011, International Committee on Standardized Genetic Nomenclature for Mice, accessible at www.informatics.jax.org/mgihome/nomen/strains.shtml. Official gene symbols, or, where appropriate, official mouse strain names of the Jackson Laboratory (www.jax.org, e.g., the Jackson Laboratory Mice Database at jaxmice.jax.org) are used. […]
Rotarod assay: Mice are habituated to balancing on a slowly rotating rotarod (5 rpm). […] The time to fall off the rod, onto a platform located ˜30 cm below the rod, is measured. The increase in latency to fall during the course of training is compared between four groups of mice for each candidate compound to be evaluated (Mutant+candidate, mutant no candidate, wild type+candidate, wild type no candidate). […]
At 8 weeks of age, motor and cognitive performance are tested in rotarod and water maze assays. Untreated mice are expected to show a significant impairment of motor and cognitive capabilities at 8 weeks of age, as measured by a shortened latency to fall in the rotarod assay, and a lengthened latency to escape in the water maze assy, respectively, as compared to wid type control mice.
Background: The rotarod test checks motor coordination on a turning rod.

We go through one compound from patent publication US20130303562A1, “CHEMICAL AND RNAI SUPPRESSORS OF NEUROTOXICITY IN HUNTINGTON'S DISEASE” (priority 2010, published 2013).

Entries after “also recorded” stand apart in the source; their conditions may differ.

Take `CC1(C)[C@@H](OC(=O)CCC(=O)O)CC[C@]2(C)[C@H]3C(=O)C=C4[C@@H]5C[C@@](C)(C(=O)O)CC[C@]5(C)CC[C@@]4(C)[C@]3(C)CC[C@@H]12` [Carbenoxolone]: the “Onset and severity of HD symptoms” value in assay [1] is given as “prevention or delay of the onset, and/or an amelioration of the severity of at least one HD symptom”. Besides, the Gap junction activity entry in assay [2] is “block gap junction activity”. For the same compound, the “Motor control / chorea (defective motor coordination)” value in assay [3] (Drosophila HD model) is “improves motor control; also recorded: improves chorea”. In assay [3] (early dosing), the “Drosophila HD model lifespan” value is listed as “extends Drosophila HD model lifespan”. For the same compound, the “Viability of Htt-Q138 expressing larvae / rescue of Htt-Q138 lethality” value in assay [4] is listed as “comparable activity”; in assay [4] (listed as carbenoxolone), “rescue HD toxicity in vivo”. For the same compound, in assay [5], the “Impairment of motor capabilities (latency to fall, rotarod)” value is “lesser degree of impairment”.
